Reference: ChEMBL document CHEMBL5380786, “Selective Covalent Targeting of Pyruvate Kinase M2 Using Arsenous Warheads” (J Med Chem, 2023)
pIC50: −log10 of the molar value. The source made the active and inactive calls. The calls are words filed in the database; no cut-off is given here.

Assays:
[1] = molecular target: T1, Pyruvate kinase PKM (Homo sapiens, UniProt P14618); test: Inhibition of human PKM2 assessed as ATP production incubated for 10 mins by Celltiter-glo luminescent analysis
Target sequence in this assay (P14618 whole entry): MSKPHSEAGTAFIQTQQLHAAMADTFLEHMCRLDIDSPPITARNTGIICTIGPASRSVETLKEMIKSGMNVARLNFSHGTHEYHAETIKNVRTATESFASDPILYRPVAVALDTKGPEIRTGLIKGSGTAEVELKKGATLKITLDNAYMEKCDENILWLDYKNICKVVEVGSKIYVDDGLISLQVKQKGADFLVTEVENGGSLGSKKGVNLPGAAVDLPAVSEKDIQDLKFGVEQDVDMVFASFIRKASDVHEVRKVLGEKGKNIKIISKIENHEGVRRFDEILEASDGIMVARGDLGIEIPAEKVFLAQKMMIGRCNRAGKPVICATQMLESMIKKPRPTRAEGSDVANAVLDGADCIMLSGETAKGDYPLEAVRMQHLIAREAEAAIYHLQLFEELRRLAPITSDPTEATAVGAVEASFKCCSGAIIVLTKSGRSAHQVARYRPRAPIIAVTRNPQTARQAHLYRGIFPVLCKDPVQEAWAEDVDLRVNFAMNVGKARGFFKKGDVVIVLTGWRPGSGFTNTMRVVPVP

[2] = molecular target: T1, Pyruvate kinase PKM; test: Inhibition of human PKM2 assessed as ATP production incubated for 10 mins in presence of beta-mercaptoethanol by Celltiter-glo luminescent analysis
Target sequence in this assay (P14618 whole entry): as above

[3] = molecular target: T1, Pyruvate kinase PKM; test: Binding affinity to PKM2 in human PA-1 cells assessed as target engagement of protein at 10 uM silver staining based […] gel electrophoresis analysis; format: cell-based
Target sequence in this assay (P14618 2-531 limits assumed): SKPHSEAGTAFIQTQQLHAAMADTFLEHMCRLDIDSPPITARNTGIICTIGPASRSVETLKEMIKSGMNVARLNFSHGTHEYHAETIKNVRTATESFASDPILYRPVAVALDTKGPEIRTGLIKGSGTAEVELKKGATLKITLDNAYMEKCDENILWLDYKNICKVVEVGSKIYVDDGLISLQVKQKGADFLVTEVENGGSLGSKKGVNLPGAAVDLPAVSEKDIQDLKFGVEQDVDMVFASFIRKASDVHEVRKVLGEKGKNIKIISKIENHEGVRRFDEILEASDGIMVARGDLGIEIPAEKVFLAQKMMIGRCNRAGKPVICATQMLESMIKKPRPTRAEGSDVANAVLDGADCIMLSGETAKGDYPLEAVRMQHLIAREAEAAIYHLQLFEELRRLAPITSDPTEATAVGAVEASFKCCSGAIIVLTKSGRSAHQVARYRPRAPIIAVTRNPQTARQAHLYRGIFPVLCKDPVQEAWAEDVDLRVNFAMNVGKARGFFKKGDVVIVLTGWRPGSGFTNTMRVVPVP

[4] = molecular target: T1, Pyruvate kinase PKM; test: Binding affinity to human PKM1 in HEK-293T by measuring pulldown using streptavidin agarose resin preincubated for 18 hrs followed by streptavidin pulldown for 18 hrs by silver staining based immunoblotting analysis; format: cell-based; details: time 36.0 hrs
Target sequence in this assay (P14618 2-531 limits assumed): as above

[5] = molecular target: T1, Pyruvate kinase PKM; test: Binding affinity to PKM2 in human PA-1 cells at 10 uM pretreated for 6 hrs followed by pulldown using streptavidin agarose resin by Western blot analysis; format: cell-based
Target sequence in this assay (P14618 2-531 limits assumed): as above

[6] = molecular target: T1, Pyruvate kinase PKM; test: Binding affinity to PKM2 in human SK-OV-3 cells at 10 uM pretreated for 6 hrs followed by pulldown using streptavidin agarose resin by Western blot analysis; format: cell-based
Target sequence in this assay (P14618 2-531 limits assumed): as above

[7] = system: PA-1; test: Antiproliferative activity against human PA-1 cells assessed as reduction in cell viability incubated for 72 hrs by Cell-TiterGlo assay; format: functional, cell-based; details: PA-1, 72 h
[8] = system: A2780; test: Antiproliferative activity against human A2780 cells assessed as reduction in cell viability incubated for 72 hrs by Cell-TiterGlo assay; format: functional, cell-based; details: A2780, 72 h
[9] = system: SK-OV-3; test: Antiproliferative activity against human SK-OV-3 cells assessed as reduction in cell viability incubated for 72 hrs by Cell-TiterGlo assay; format: functional, cell-based; details: SK-OV-3, 72 h
[10] = system: PA-1; test: Antiproliferative activity against human PKM2 knockdown PA-1 cells assessed as reduction in cell viability incubated after 96 hrs by Cell-TiterGlo assay; format: functional, cell-based
[11] = system: SK-OV-3; test: Antiproliferative activity against human PKM2 knockdown SK-OV-3 cells assessed as reduction in cell viability incubated after 96 hrs by Cell-TiterGlo assay; format: functional, cell-based
[12] = molecular target: T1, Pyruvate kinase PKM; test: Binding affinity to PKM2 in human PA-1 cells assessed as thermal stabilization at 2 uM measured for 6 hrs by cellular thermal shift assay; format: cell-based
Target sequence in this assay (P14618 2-531 limits assumed): as above

[13] = molecular target: T1, Pyruvate kinase PKM; test: Binding affinity to PKM2 in human SK-OV-3 cells assessed as thermal stabilization at 2 uM measured for 6 hrs by cellular thermal shift assay; format: cell-based
Target sequence in this assay (P14618 2-531 limits assumed): as above

[14] = system: HEY; test: Antitumor activity against human HEY cells xenografted in BALB/c nude mouse model assessed as reduction of tumor burden at 50 mg/kg, po qd; format: functional, organism-based
[15] = system: HEY; test: Antitumor activity against human HEY cells xenografted in BALB/c nude mouse model assessed as reduction in total tumor weight by measuring fold change at 50 mg/kg, po qd; format: functional
[16] = system: HEY; test: Antitumor activity against human HEY cells xenografted in BALB/c nude mouse model assessed as reduction average tumor volume by measuring fold change at 50 mg/kg, po qd by caliper analysis; format: functional
[17] = Toxicity in BALB/c mouse assessed as change in body weight at 50 mg/kg, po qd measured after 2 weeks; format: organism-based; details: in vivo, 336 h
[18] = Toxicity in BALB/c mouse assessed as adverse effects at 50 mg/kg, po qd measured after 2 weeks; format: organism-based; details: in vivo, 336 h
[19] = molecular target: T1, Pyruvate kinase PKM; test: Binding affinity to wild type FLAG-tagged PKM2 in human PA-1 cells measured for 72 hrs; format: cell-based
Target sequence in this assay (P14618 whole entry): as the sequence (P14618 whole entry) above

[20] = molecular target: Pyruvate kinase PKM (Homo sapiens, UniProt P14618, C474A); test: Binding affinity to PKM2 C474A mutant in human PA-1 cells measured for 72 hrs; format: cell-based
[21] = molecular target: Pyruvate kinase PKM (Homo sapiens, UniProt P14618, C474S); test: Binding affinity to PKM2 C474S mutant in human PA-1 cells measured for 72 hrs; format: cell-based
[22] = molecular target: T1, Pyruvate kinase PKM; test: Inhibition of PKM2 in human PA-1 cells assessed as increase in extracellular acidification rate at 1 to 5 uM measured for 12 hrs by Seahorse XF96 extracellular flux analyzer; format: cell-based; details: dose 1-5 µM
[23] = molecular target: T1, Pyruvate kinase PKM; test: Inhibition of PKM2 in human SK-OV-3 cells assessed as decrease in extracellular acidification rate at 5 uM measured for 12 hrs by Seahorse XF96 extracellular flux analyzer; format: cell-based
[24] = molecular target: T1, Pyruvate kinase PKM; test: Inhibition of PKM2 in human PA-1 cells assessed as reduction pyruvate level at 5 uM measured for 12 hrs by LC-MS analysis; format: cell-based
[25] = molecular target: T1, Pyruvate kinase PKM; test: Inhibition of PKM2 in human PA-1 cells assessed as increase in ADP/ATP ratio at 5 uM measured for 12 hrs by LC-MS analysis; format: cell-based
[26] = molecular target: T1, Pyruvate kinase PKM; test: Inhibition of PKM2 in human PA-1 cells assessed as reduction in LDH level at 5 uM measured after 3 hrs by Western blot analysis; format: cell-based
[27] = molecular target: T1, Pyruvate kinase PKM; test: Inhibition of PKM2 in human PA-1 cells assessed as reduction in c-MYC phosphorylation level at 3 uM incubated for 6 to 12 hrs by Western blotting analysis; format: cell-based; details: time 6-12 hrs
[28] = molecular target: T1, Pyruvate kinase PKM; test: Inhibition of PKM2 in human PA-1 cells assessed as reduction in cyclin D1 phosphorylation level at 3 uM incubated for 6 to 12 hrs by Western blotting analysis; format: cell-based; details: time 6-12 hrs
[29] = molecular target: T1, Pyruvate kinase PKM; test: Inhibition of PKM2 in human PA-1 cells assessed as effect on STAT3 phosphorylation level at 3 uM incubated for 6 to 12 hrs by Western blotting analysis; format: cell-based; details: time 6-12 hrs
[30] = molecular target: T1, Pyruvate kinase PKM; test: Inhibition of PKM2 in human PA-1 cells assessed as effect on AKT phosphorylation level at 3 uM incubated for 6 to 12 hrs by Western blotting analysis; format: cell-based; details: time 6-12 hrs
[31] = molecular target: T1, Pyruvate kinase PKM; test: Inhibition of PKM2 in human PA-1 cells assessed as effect on ERK1/2 phosphorylation level at 3 uM incubated for 6 to 12 hrs by Western blotting analysis; format: cell-based; details: time 6-12 hrs
[32] = system: SK-OV-3; test: Inhibition of PKM2 knockdown in human SK-OV-3 cells assessed as AMPK phosphorylation level at 3 uM incubated for 6 to 12 hrs by Western blotting analysis; format: functional, cell-based; details: time 6-12 hrs
[33] = system: SK-OV-3; test: Inhibition of PKM2 knockdown in human SK-OV-3 cells assessed as c-MYC phosphorylation level at 3 uM incubated for 6 to 12 hrs by Western blotting analysis; format: functional, cell-based; details: time 6-12 hrs

Sequence of Pyruvate kinase PKM (Homo sapiens, UniProt P14618, C474A) (P14618 2-531 C474A limits assumed): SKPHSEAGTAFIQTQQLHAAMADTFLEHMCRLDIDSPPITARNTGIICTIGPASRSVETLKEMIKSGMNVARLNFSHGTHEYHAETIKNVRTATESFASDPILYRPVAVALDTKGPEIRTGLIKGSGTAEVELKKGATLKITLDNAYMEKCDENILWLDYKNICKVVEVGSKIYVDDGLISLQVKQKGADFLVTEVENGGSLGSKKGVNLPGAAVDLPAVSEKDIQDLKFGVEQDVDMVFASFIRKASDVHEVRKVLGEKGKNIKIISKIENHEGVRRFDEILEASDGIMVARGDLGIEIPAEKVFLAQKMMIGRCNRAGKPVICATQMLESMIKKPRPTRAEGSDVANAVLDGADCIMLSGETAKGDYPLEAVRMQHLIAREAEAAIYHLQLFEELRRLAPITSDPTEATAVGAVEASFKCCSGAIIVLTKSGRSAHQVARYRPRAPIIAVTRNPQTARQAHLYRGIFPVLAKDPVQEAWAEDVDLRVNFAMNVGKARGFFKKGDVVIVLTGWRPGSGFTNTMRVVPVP
Sequence of Pyruvate kinase PKM (Homo sapiens, UniProt P14618, C474S) (P14618 2-531 C474S limits assumed): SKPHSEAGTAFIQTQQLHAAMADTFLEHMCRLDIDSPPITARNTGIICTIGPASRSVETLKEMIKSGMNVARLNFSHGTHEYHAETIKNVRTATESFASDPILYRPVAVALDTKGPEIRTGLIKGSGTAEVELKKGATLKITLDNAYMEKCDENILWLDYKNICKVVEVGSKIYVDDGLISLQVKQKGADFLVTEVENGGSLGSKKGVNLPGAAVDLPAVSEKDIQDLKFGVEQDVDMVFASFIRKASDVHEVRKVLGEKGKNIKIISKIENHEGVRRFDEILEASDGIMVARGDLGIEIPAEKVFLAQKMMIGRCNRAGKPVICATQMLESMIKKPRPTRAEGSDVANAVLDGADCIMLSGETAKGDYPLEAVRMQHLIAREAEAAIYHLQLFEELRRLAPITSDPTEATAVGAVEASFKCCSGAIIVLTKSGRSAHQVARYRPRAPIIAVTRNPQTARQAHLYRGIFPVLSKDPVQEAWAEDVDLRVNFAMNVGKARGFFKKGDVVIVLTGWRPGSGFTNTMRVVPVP

Q: With `O=C(CCCC[C@H]1SC[C@H]2NC(=O)N[C@H]21)NCCOCCOCCOCCOCC(=O)Nc1ccc([As](O)O)cc1` as the compound, how does the pIC50 [1] read?
A: Its pIC50 is 6.64.

Q: And the pIC50 [2]?
A: Its pIC50 is 5.99.

Q: What about the Activity [3] of the same compound?
A: Its Activity is “Active”.

Q: For `O=C(CCCC[C@H]1SC[C@H]2NC(=O)N[C@H]21)NCCOCCOCCOCCN1CCC(CN(C(=O)[C@@H]2CCN(Cc3ccccc3)C2)c2ccc([As]3SCCS3)cc2)CC1`, which Activity [4] is on record?
A: The Activity was “inactive”.

Q: What about the Activity [5] of the same compound?
A: Its Activity is “inactive”.

Q: What about the Activity [6] of the same compound?
A: Its Activity is “inactive”.

Q: With `CCN1CCC(CN(C(=O)[C@@H]2CCN(Cc3ccccc3)C2)c2ccc([As]3SCCS3)cc2)CC1` as the compound, how does the pIC50 [1] read?
A: The pIC50 was less than 5.00.

Q: What about the pIC50 [2] of the same compound?
A: The pIC50 was less than 5.00.

Q: What about the pIC50 [7] of the same compound?
A: The pIC50 was 6.80.

Q: What about the pIC50 [8] of the same compound?
A: Its pIC50 is 6.64.

Q: And the pIC50 [9]?
A: The pIC50 was less than 5.00.

Q: And the Activity [10]?
A: Its Activity is “inactive”.

Q: And the Activity [11]?
A: Its Activity is “Active”.

Q: And the Activity [12]?
A: Its Activity is “inactive”.

Q: What about the Activity [13] of the same compound?
A: Its Activity is “inactive”.

Q: What about the Activity [14] of the same compound?
A: The Activity was “Active”.

Q: And the “fold change (FC)” value [15]?
A: The value was greater than 3.

Q: What about the “fold change (FC)” value [16] of the same compound?
A: The value was 2.

Q: And the Activity [17]?
A: Its Activity is “Non-Toxic”.

Q: And the Activity [18]?
A: Its Activity is “Non-Toxic”.

Q: And the pIC50 [19]?
A: The pIC50 was 7.80.

Q: What about the pIC50 [20] of the same compound?
A: The pIC50 was 6.89.

Q: What about the pIC50 [21] of the same compound?
A: The pIC50 was 7.03.

Q: What about the inhibition [22] of the same compound?
A: Its inhibition is “inactive”.

Q: And the inhibition [23]?
A: The inhibition was “Active”.

Q: What about the inhibition [24] of the same compound?
A: Its inhibition is “Active”.

Q: And the inhibition [25]?
A: Its inhibition is “Active”.

Q: What about the inhibition [26] of the same compound?
A: The inhibition was “inactive”.

Q: And the inhibition [27]?
A: Its inhibition is “Active”.

Q: And the inhibition [28]?
A: The inhibition was “Active”.

Q: What about the inhibition [29] of the same compound?
A: The inhibition was “inactive”.

Q: And the inhibition [30]?
A: The inhibition was “inactive”.

Q: What about the inhibition [31] of the same compound?
A: The inhibition was “inactive”.

Q: What about the inhibition [32] of the same compound?
A: Its inhibition is “Active”.

Q: What about the inhibition [33] of the same compound?
A: The inhibition was “inactive”.

Q: Which results are given for `CN1CC[C@@H](C(=O)Nc2ccc([As](O)O)cc2)C1`?
A: pIC50 [1]: 6.86; pIC50 [2]: 6.23; pIC50 [7]: 6.32; pIC50 [8]: 6.47; pIC50 [9]: 6.55

Q: With `CCN1CCC(CN(C(=O)[C@@H]2CCN(Cc3ccccc3)C2)c2ccc([As](O)O)cc2)CC1` as the compound, how does the pIC50 [1] read?
A: Its pIC50 is 6.91.

Q: What about the pIC50 [2] of the same compound?
A: The pIC50 was 6.60.

Q: What about the pIC50 [7] of the same compound?
A: The pIC50 was less than 5.00.

Q: What about the pIC50 [8] of the same compound?
A: The pIC50 was less than 5.00.

Q: And the pIC50 [9]?
A: The pIC50 was less than 5.00.

Q: And the Activity [5]?
A: Its Activity is “Active”.

Q: And the Activity [6]?
A: The Activity was “Active”.

Q: For `O=C(CCCC[C@H]1SC[C@H]2NC(=O)N[C@H]21)NCCOCCOCCOCCOCC(=O)Nc1ccc([As]2SCCS2)cc1`, which Activity [3] is on record?
A: The Activity was “inactive”.

Q: With `CCN1CCC(CN(C(=O)[C@H]2CCN(Cc3ccccc3)C2)c2ccc([As](O)O)cc2)CC1` as the compound, how does the pIC50 [1] read?
A: The pIC50 was 6.17.

Q: And the pIC50 [2]?
A: The pIC50 was 5.67.

Q: With `O=C([C@@H]1CCN(Cc2ccccc2)C1)N(Cc1ccccc1)c1ccc([As](O)O)cc1` as the compound, how does the pIC50 [1] read?
A: Its pIC50 is 6.49.

Q: And the pIC50 [2]?
A: Its pIC50 is 5.83.
